Measured values reported in ChEMBL document CHEMBL3585324, “Suncheonosides A-D, Benzothioate Glycosides from a Marine-Derived Streptomyces sp” (J Nat Prod, 2015).
Calls of active or inactive are those of the source. The calls are words filed in the database; no cut-off is given here.

Experiments:
Mesenchymal stem cell [1] = assay: Antidiabetic activity against IDX medium-treated human bone marrow mesenchymal stem cells assessed as induction of adiponectin production during adipogenesis at 60 to 100 uM after 6 days by ELISA relative to IDX medium-treated control; type: functional
[2] = Cytotoxicity against human bone marrow mesenchymal stem cells assessed as cell viability up to 100 uM after 48 hrs by WST-1 assay; type: cell-based
Mesenchymal stem cell [3] = assay: Antidiabetic activity against IDX medium-treated human bone marrow mesenchymal stem cells assessed as induction of adiponectin production during adipogenesis after 6 days by ELISA; type: functional
Mesenchymal stem cell [4] = assay: (§1) Antidiabetic activity against IDX medium-treated human bone marrow mesenchymal stem cells assessed as induction of adipogenesis at 10 uM after 6 days by oil red o/hematoxylin staining-based inverted-phase microscopic analysis relative to IDX medium-treated control; type: functional
[5] = Antidiabetic activity against IDX medium-treated human bone marrow mesenchymal stem cells assessed as induction of adiponectin production during adipogenesis after 6 days by ELISA relative to glibenclamide; type: functional, Mesenchymal stem cell
[6] = as §1; type: functional, Mesenchymal stem cell

Structure (SMILES): CSC(=O)c1c(O)c(C)c(O)c(C)c1C(C)C
- Activity (Mesenchymal stem cell [1]): inactive
- Activity [2]: Non-toxic

Structure (SMILES): COc1ccc(Cl)cc1C(=O)NCCc1ccc(S(=O)(=O)NC(=O)NC2CCCCC2)cc1
- Activity (Mesenchymal stem cell [3]): Dose-dependent effect

Structure (SMILES): COc1c(C)c(O[C@@H]2O[C@@H](C)[C@H](O)[C@@H](O)[C@H]2O)c(C)c(C(C)C)c1C(=O)SC
- Activity (Mesenchymal stem cell [4]): Active

Structure (SMILES): CSC(=O)c1c(O[C@@H]2O[C@@H](C)[C@H](O)[C@@H](O)[C@H]2O)c(C)c(O[C@@H]2O[C@@H](C)[C@H](O)[C@@H](O)[C@H]2O)c(C)c1C(C)C
- Activity (Mesenchymal stem cell [3]): Dose-dependent effect
- %max [5]: 38%
- Activity [6]: 75%
- Activity [2]: Non-toxic

Structure (SMILES): CSC(=O)c1c(O[C@@H]2O[C@@H](C)[C@H](O)[C@@H](O)[C@H]2O)c(C)c(O)c(C)c1C(C)C
- Activity (Mesenchymal stem cell [3]): Dose-dependent effect
- %max [5]: 44%
- Activity [6]: 107%
- Activity [2]: Non-toxic

Structure (SMILES): COc1c(C)c(O[C@@H]2O[C@@H](C)[C@H](O)[C@@H](O)[C@H]2O)c(C(=O)SC)c(C(C)C)c1C
- Activity (Mesenchymal stem cell [3]): Dose-dependent effect
- %max [5]: 47%
- Activity [6]: 65%
- Activity [2]: Non-toxic
